Reference: PubChem BioAssay (NCI)
“And” between values parts separate entries of the source, which are not always exact repeats. Identical values can stand only once.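 Five concentrations, 48 hours, 96-well plates. GI50 marks 50% less growth. TGI denotes the concentration required for complete inhibition of growth.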

What was measured:
Assay in all cases: inhibition of tumour cell growth, NCI panel, 48 h
HT29 colon = system: HT29 colon
A498 renal = system: A498 renal
KM12 colon = system: KM12 colon
HS 578T breast = system: HS 578T breast
SW-620 colon = system: SW-620 colon
A549 NSCLC = system: A549 NSCLC
OVCAR-8 ovarian = system: OVCAR-8 ovarian
MCF7 breast = system: MCF7 breast
RXF 393 renal = system: RXF 393 renal
UACC-257 melanoma = system: UACC-257 melanoma

SMILES	GI50 (HT29 colon)	TGI (HT29 colon)	GI50 (A498 renal)	TGI (A498 renal)	GI50 (KM12 colon)	TGI (KM12 colon)	GI50 (HS 578T breast)	TGI (HS 578T breast)	GI50 (SW-620 colon)	TGI (SW-620 colon)	GI50 (A549 NSCLC)	TGI (A549 NSCLC)	GI50 (OVCAR-8 ovarian)	TGI (OVCAR-8 ovarian)	GI50 (MCF7 breast)	TGI (MCF7 breast)	GI50 (RXF 393 renal)	TGI (RXF 393 renal)	GI50 (UACC-257 melanoma)	TGI (UACC-257 melanoma)
CC1=C(C#N)C23C(=O)N(c4ccccc4)C(=O)C2=C(O)C=CC3(O)N1Cc1ccc(Cl)cc1Cl (configuration not stated)	1.97 µM	4.84 µM	5.79 µM	18.1 µM	3.27 µM	12 µM	3.13 µM	11.6 µM	2.07 µM	4.29 µM	12.2 µM	28.5 µM	3.52 µM	13.8 µM	2.12 µM	13.3 µM	1.87 µM	3.87 µM	13.2 µM	27 µM
Fc1cccc(COc2ccc(Nc3ncnc4onc(-c5ccccc5)c34)cc2)c1	0.0495 µM	> 34 µM	0.24 µM	3.18 µM	0.173 µM	> 38.4 µM	0.0974 µM	2.02 µM	0.139 µM	> 100 µM	0.175 µM	> 100 µM	0.262 µM	> 100 µM	0.0393 µM	> 100 µM	0.219 µM	1.35 µM	37.5 µM	> 100 µM
O=C(c1c(F)c(F)c(F)c(F)c1F)c1c(F)c(F)c(F)c(F)c1F		3.08 µM		9.16 µM		2.04 µM		> 26.6 µM		60.6 µM		15.4 µM		2.97 µM		2.58 µM		2.94 µM		4.65 µM
O=C1Nc2c(Cl)cc(Cl)cc2/C1=N/N=C/c1ccco1		> 100 µM		57.7 µM		> 100 µM		> 100 µM		> 100 µM		> 100 µM		> 100 µM		> 100 µM		> 100 µM		> 100 µM
COc1ccccc1C#Cc1ccccc1C#Cc1ccc(OCCCCCCOc2ccccc2C#Cc2ccccc2C#Cc2ccccc2OC)cc1	> 100 µM	> 100 µM	> 100 µM	> 100 µM	> 100 µM	> 100 µM	> 100 µM	> 100 µM	> 100 µM	> 100 µM	> 100 µM	> 100 µM	> 100 µM	> 100 µM	> 100 µM	> 100 µM	> 100 µM	> 100 µM	> 100 µM	> 100 µM
CC(C)(C)OC(=O)C1C(=O)NC(=O)CC1CC(OCc1ccccc1)C(OCc1ccccc1)C(COCc1ccccc1)OCc1ccccc1 (configuration not stated)		> 100 µM and 23.5 µM		> 100 µM	39 µM and 5.26 µM	> 100 µM and 27.2 µM		> 100 µM	74.5 µM and 23.4 µM	> 100 µM	26 µM and 5.23 µM	> 100 µM and 28.5 µM	33.1 µM and 12 µM	> 100 µM	27 µM and 7.19 µM	> 100 µM and 89.6 µM		99.7 µM and 32.6 µM	47.8 µM and 15.3 µM	> 100 µM
Cc1ccc(CNc2ccc3nc(CCC4CCCCC4)[nH]c3c2)cc1	1.88 µM	5.19 µM	1.44 µM	4.32 µM	2.83 µM	9.05 µM	2.16 µM	7.06 µM	1.99 µM	4.64 µM	3.02 µM	17.6 µM	3.21 µM	> 100 µM	2.14 µM	6.24 µM	2.06 µM	5.38 µM	2.37 µM	6.44 µM
CC(=O)O.CN1[CH-]N(Cc2ccc(C#N)cc2)c2ccccc21.[Ag+]	21.6 µM	44.4 µM	> 100 µM	> 100 µM	> 100 µM	> 100 µM	> 100 µM	> 100 µM	15.3 µM	31 µM	32.3 µM	> 100 µM	23.9 µM	75.9 µM	17.8 µM	51.7 µM	14 µM	28.3 µM	14.8 µM	29.7 µM
Cc1cc(OCc2nnc3n2S(=O)(=O)c2ccccc2N3C)ccc1Cl		> 100 µM		55.3 µM		> 100 µM		> 100 µM		> 100 µM		> 100 µM		> 100 µM		> 100 µM		60.1 µM		> 100 µM
O=C(O)Cc1cccc2c(=O)cc(-c3ccccc3)oc12	489 µM	> 1000 µM	307 µM	250 µM and 979 µM	334 µM	250 µM and > 889 µM	415 µM	209 µM and 889 µM	313 µM	> 1000 µM	728 µM	250 µM and > 1000 µM	84.5 µM	> 1000 µM	581 µM	250 µM and > 1000 µM	> 862 µM	250 µM and > 1000 µM	614 µM	> 1000 µM
NC(=O)c1cc(N2CC2)c([N+](=O)[O-])cc1[N+](=O)[O-]	> 200 µM	> 200 µM		200 µM	> 200 µM	> 200 µM		> 200 µM	> 200 µM	> 200 µM		> 200 µM	> 200 µM	> 200 µM		> 63.2 µM	> 200 µM	> 200 µM	> 200 µM	> 200 µM
COc1ccc(Br)cc1NC(=O)Nc1cccc2c1ccn2Cc1ccnc(N)c1	2.59 µM and 2.24 µM	8.09 µM and > 10 µM	2.41 µM and 4.12 µM	11.6 µM and > 10 µM	2.57 µM and 4.27 µM	8.23 µM and > 10 µM	1.84 µM and 3.81 µM	16.2 µM and > 10 µM	2.85 µM and 6.72 µM	8.41 µM and > 10 µM	5.64 µM and > 10 µM	22.7 µM and > 10 µM	5.94 µM and > 10 µM	23.3 µM and > 10 µM	3.82 µM and 5.69 µM	20.7 µM and > 10 µM	4.6 µM and 9.23 µM	16.1 µM and > 10 µM	9.81 µM and > 10 µM	27.5 µM and > 10 µM
Cc1c(Cn2c(C)nc3c(C(=O)O)cc(N4CCOCC4)cc32)cccc1C(F)(F)F	57.3 µM	> 100 µM	0.0339 µM	0.319 µM	56.7 µM	> 100 µM	50.5 µM	> 100 µM	45.5 µM	> 100 µM	54.3 µM	> 100 µM	33.7 µM	> 100 µM	42.7 µM	> 100 µM	0.719 µM	> 63.4 µM	61.1 µM	> 100 µM
COc1cc(-c2nn(-c3cccc(NC(=O)Nc4ccc(Cl)c(C(F)(F)F)c4)c3)cc2-c2ccncc2)ccc1Cl	1.19 µM	4.45 µM	0.837 µM	6.97 µM	1.06 µM	3.91 µM	1.32 µM	18.3 µM	1.29 µM	29.9 µM	1.02 µM	16.7 µM	1.05 µM	5.87 µM	0.919 µM	> 32.5 µM	1.18 µM	6.29 µM	1.21 µM	6.03 µM
